Key:
S. aureus [1] = settings: TSB
Method: (§1) Determining the Minimum Bactericidal Concentration (MBC120). […] This value, the MBC120, was acquired by growing S. aureus to an OD600=0.075 in TSB. At this value the concentration was determined to be 10^8 CFUs/mL. In order to achieve a final bacterial concentration of 10^4, four ten-fold dilutions were performed in TSB. […] For proli/NO, 1 mL of 2×10^4 CFUs/mL bacterial solution was added to various masses (0.5-16 mg). […] The plates were incubated overnight at 37° C. and enumerated. The graphs present the total CFUs present in each tube as determined by counting each colony and multiplying that number by 100 to account for both 10-fold dilutions. Determination of Fractional Bactericidal Concentration (FBC120). […] S. aureus was cultured to a concentration of 10^8 CFUs/mL and the concentration was adjusted to 2×10^4 CFUs/mL in TSB. […] After incubating the plates overnight at 37° C., viability was determined by counting the number of distinct colonies on each plate and multiplying this number by 100 to account for the two 10-fold dilutions. The numerical value of the FBC120 was obtained according to the equation:

P. aeruginosa [2] = assay: Bactericidal assays under static conditions (PBS); format: cell-based
Method: Bactericidal assays under static conditions. […] Silica nanoparticles (NO-releasing and control), PROLI/NO, and proline were added to separate aliquots of the bacterial suspension over a concentration range optimized for each system. After 1 h incubation at 37° C. with gentle agitation, 100-μL aliquots from each suspension were plated on tryptic soy agar. After overnight incubation at 37° C., the colonies on each plate were counted, allowing for calculation of the number of viable P. aeruginosa cells in each vial at the time of plating.

P. aeruginosa [3] = assay: Time-based bactericidal assays under nutrient growth conditions (TSB); format: cell-based; set-up: amount of NO per mL required for complete bacterial killing: unit not given here
Method: Time-based bactericidal assays under nutrient growth conditions. To test the temporal efficacy of the NO-releasing silica nanoparticles, time-based antibacterial assays were conducted in TSB nutrient media. P. aeruginosa was cultured in TSB to a concentration of 10^8 CFU·mL^−/1 and diluted to 10^4 CFU·mL^−1 in additional TSB. […] Bacterial viability was determined as described above after incubating the plates overnight at 37° C.

L929 cells = assay: L929 propidium iodide (PI) viability assay (Example 1); format: cell-based, mouse; settings: 2 mg/mL, L929, KRH buffer
Method: [formula] L929 propidium iodide (PI) viability assay. L929 cells were plated on 24-well tissue culture treated dishes (BD Bioscience #353047) at a density of 3.0×10^5 cells/ml (150×10^3 cells/well) and incubated overnight at 37° C., in 5% CO2/95% air for 18-20 h. For the PI assay, the incubation buffer was aspirated from each of the wells and replaced with 500 μL of Krebs-Ringer-HEPES (KRH) buffer containing (mM): 115 NaCl, 5 KCl, 1 CaCl2, 1 KH2PO4, 1.2 MgSO4, 25 HEPES, pH 7.4, supplemented with 30 μM of PI. The fluorescence of the cells was determined in a concentration-dependent manner against both proli/NO and proline, as monitored using a FluoStar Galaxy plate reader (BMG Labtech, Durham, N.C.) with excitation and emission filters set at 544 and 640 nm, respectively. Fluorescence was acquired at 0 and 60 min. An additional 20 min incubation of cells with 40 μM digitonin was required to completely permeabilize plasma membranes and achieve maximum PI fluorescence. Cell viability was represented as an increase in PI fluorescence from each well expressed as percentage of the maximum fluorescence obtained in cells treated with digitonin (100% cell death). S. aureus cytotoxicity assay in PBS. […] Toxicity was measured by aliquoting this bacterial solution into eppendorf tubes containing proli/NO, incubating these solutions for one hour at 37° C., and then plating them on TSA plates. […]

S. aureus [4] = assay: Fractional bactericidal concentration (FBC120) time-based synergistic killing assay in TSB; format: cell-based
Method: as §1

P. aeruginosa cells = assay: Confocal microscopy with DAF-2 DA NO probe and propidium iodide; format: cell-based
Description: Once inside the bacterial cell membrane, the DAF-2 DA probe is hydrolyzed to DAF-2, which is membrane-impermeable. […] Cells loaded with DAF-2 were imaged in the presence of propidium iodide (PI), which is a nucleic acid viability dye that only enters cells with compromised membranes, and fluoresces red once inside the cells. Thus, red fluorescence is indicative of cell death. […] After a peak intracellular intensity of DAF-2 fluorescence was reached, the red fluorescence of the PI began to increase, indicating entry of the PI into the cells due to membrane disruption and cell death.

[5] = format: physicochemical
Method: We synthesized proli/NO by subjecting a 2:1 molar ratio of sodium methoxide in methanol and proline to 5 atm of NO for 3 days. To the resulting solution excess diethyl ether was added. After vacuum removal of solvent a white solid was obtained. Its NO release was monitored using chemiluminescence; we determined that proli/NO releases a total of 1.8 μmol NO/mg in less than 70 s when exposed to PBS at pH 7.4. Release is initiated quickly by protonation of proline's cyclic amine or slowly by thermal degradation. In the MBC120 determination, proli/NO was kept on ice until exposure to bacterial solution to prevent thermal NO release. Proli/NO's MBC120 is 16 mg/mL against S. aureus. […] See Turner, T. D., et al., J Pharm. Pharmacol. 41, 775-80 (1989). […] Synergy is determined based on inhibition beyond what would be expected for each alone. […] More specifically, the MBC was used instead of the MIC, once again because we are interested in reducing a bacterium's chances of becoming resistant to the drug employed by developing conditions that will lead to a quick kill. Additionally, reducing the bacterial burden in wound beds quickly is paramount to prevent infections. […] See Feng Q. L. et al., J. Biomed. Mater. Res. 52, 662-668 (2000).
Nitric oxide release measurements. Nitric oxide release from both the diazeniumdiolate-modified silica nanoparticles and PROLI/NO was measured in deoxygenated phosphate-buffered saline (PBS, 0.01 M; 37° C.) at pH 7.4 using a Sievers NOA 280i chemiluminescence NO analyzer (Boulder, Colo.). Nitric oxide released from the donors was transported to the analyzer by a stream of N2 (70 mL·min^−1) passed through the reaction cell. The instrument was calibrated with air passed through a NO zero filter (0 ppm NO) and a 24.1 ppm NO standard gas (balance N2).

mammalian cells = settings: 200 ppm for 4 hours; cited from earlier work
[6] = amount of NO equal to 100 μg·mL^−1 nanoparticles

O=C([O-])C1CCCN1[N+]([O-])=N[O-].[Na+].[Na+] (stereo not shown) [proli/NO]
MBC120 (concentration for three logs of killing within 120 min) (S. aureus [1]): 16 mg/mL
amount of NO required per mL for a 3 log reduction in bacterial viability (P. aeruginosa [2]; PBS, 1 h): 4.5 μmol NO
concentration completely bactericidal (3 logs of killing) (P. aeruginosa [2]; PBS, 1 h): 2.5 mg·mL^−1
mass required relative to silica nanoparticles for complete killing (P. aeruginosa [2]; PBS, by mass): approximately 35 times
time to complete killing (P. aeruginosa [3]; 12 mg·mL^−1, TSB): 30 min
time of bacterial killing (P. aeruginosa [3]; 12 and 20 mg·mL^−1, TSB): < 30 min
amount of NO per mL required for complete bacterial killing (P. aeruginosa [3]; TSB): 21.6
toxicity to dermal fibroblasts (L929 cells): non-toxic
toxicity to S. aureus, agent alone (S. aureus [4]; 8 mg/mL proli/NO alone): non-toxic
fraction of MBC120 used in the combination (S. aureus [4]; 2/16 mg/mL proli/NO, 21.9/[…] AgSD): 0.125
P. aeruginosa cell death (PI fluorescence) (P. aeruginosa cells; 5 mg·mL^−1): rapid cell death
intracellular DAF-2 fluorescence prior to cell death (P. aeruginosa cells; 5 mg·mL^−1): still not observed
P. aeruginosa cell death (PI fluorescence) (P. aeruginosa cells; [6]): cell death was not observed
intracellular DAF-2 fluorescence (P. aeruginosa cells; [6]): no intracellular DAF-2 fluorescence was observed
time in which the total NO is released ([5]; PBS at pH 7.4 (Example 1)): less than 70 s
total NO released ([5]; PBS at pH 7.4 (Example 1)): 1.8 μmol NO/mg
total amount of NO released (t[NO]) ([5]; PBS pH 7.4, 37° C. (Example 2)): 1.8 μmol NO·mg^−1
time required to reach the maximum NO flux (tm) ([5]; after immersion in / addition to buffer): approximately 1 min
maximum NO flux ([NO]m) ([5]; not told, pH 7.4): > 145000 ppb·mg^−1
NO release half life (t1/2) ([5]; pH 7.4): < 2 min

O=C(O)[C@@H]1CCCN1 [proline]
killing of P. aeruginosa by controls depleted of NO (P. aeruginosa [2]; over the concentration ranges tested): no killing
toxicity to P. aeruginosa (P. aeruginosa [2]; up to 20 mg·mL^−1, the highest concentrations tested): no toxicity
growth of P. aeruginosa exposed to control solutions (P. aeruginosa [3]; TSB, 2 h): proliferated

NCCNCCN [diethylenetriamine backbone, diethylenetriamine]
toxicity of backbone alone to P. aeruginosa (P. aeruginosa [2]; data not shown): considerable toxicity

nitric oxide [NO gas]
toxicity to mammalian cells (mammalian cells): not toxic

Reference: patent US8399005B2, “Use of nitric oxide to enhance the efficacy of silver and other topical wound care agents” (University of North Carolina at Chapel Hill, priority 2007, dated 2013)
